In data set [1] the test system is hCD39 mRNA. Kind of data set: hCD39 mRNA knockdown efficacy screen in HDLM-2 cells (single dose, gymnotic delivery, QuantiGene Singleplex). Conditions: 10 μM, 3 days, third screening round. Format: cell-based, human. An outline of the steps:
(§1)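 Antisense oligonucleotides given once at 10 μM without transfection reagent (gymnotic) to HDLM-2 or A-172 cells for 3 days. hCD39 mRNA measured by QuantiGene Singleplex, normalized to HPRT1 and expressed relative to untreated cells; triplicate means.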

The test system of the next data set is hCD39 protein. Kind of data set: hCD39 protein expression in primary human CD8+ and CD4+ T cells after oligonucleotide removal (flow cytometry). Format: cell-based. Conditions: 10 μM for six days with anti-CD3, compared to untreated control cells. The method, then: Thereafter, oligonucleotides and anti-CD3 were removed and hCD39 protein expression was analyzed by flow cytometry three, six, and eleven days after oligonucleotide removal. CD39 protein expression is depicted as mean fluorescence intensity (MFI) and was calculated by subtracting the MFI of the unspecific isotype control from the MFI of CD39. Depicted is the mean of duplicate wells+/−SD.
A04040H had shown very potent activity in suppressing hCD39 expression on mRNA- and protein-level in human cancer cell lines. In the next step, its activity in primary human T cells was investigated. Furthermore, the persistence of the effects after antisense oligonucleotide removal was examined. Therefore, CD8^+ and CD4^+ T cells were isolated from peripheral blood and activated for a total treatment time of six days with anti-CD3 in the presence of 10 μM of the hCD39 specific antisense oligonucleotide A04040H (black column) or the control oligonucleotide S6 (white column), which is not complementary to any human mRNA. […] Thereafter, oligonucleotides were removed and hCD39 protein expression was analyzed three, six, and eleven days after oligonucleotide removal by flow cytometry (FIG. 9).
On the technique in general: A flow cytometer gives signals particle by particle.

The test system of data set [2] is hCD39 mRNA. Kind of data set: hCD39 mRNA knockdown efficacy screen in A-172 cells (single dose, gymnotic delivery, QuantiGene Singleplex). Conditions: 10 μM, 3 days, third screening round. Type of data set: cell-based, human. In short, it runs like this:
as §1

A further data set deals with human CD8+ T cells. Kind of data set: Proliferation and absolute cell numbers of human CD8+ T cells in presence or absence of extracellular ATP. Type of data set: cell-based. Particulars: 5 μM oligonucleotide 5 days or 20 μM ARL67156 24 h. As for the experimental part: FIG. 12A-12C depict human CD8^+ T cells which were labelled with cell proliferation dye, activated with anti-CD3 and treated with 5 μM of the antisense oligonucleotide A04040H (black column) or the control oligonucleotide S6 (white column) for a total treatment time of 5 days. In the vehicle control (striped column), cells were activated with anti-CD3 only. Subsequently, 400 μM of ATP or vehicle were added to cells on day 3 and day 4 after start of oligonucleotide treatment. Furthermore, as additional control, the small molecular CD39-inhibitor ARL67156 trisodium salt was added at 20 μM to cells on day 4, for an incubation time of 24 h (checked column). On day 5 after start of oligonucleotide treatment, (FIG. 12A) CD39 protein expression, (FIG. 12B) proliferation and (FIG. 12C) absolute cell numbers of CD8^+ T cells were analyzed using Flow Cytometry. Depicted is the mean of triplicate wells+/−SD.
In cancer, ATP is released from tumor cells for example after cell death induced by chemotherapy or radiation therapy. Since the CD39-CD73 axis plays an important role for T cell function the effects of A04040H on T cell proliferation in the presence or absence of extracellular ATP were investigated. Human CD8^+ T cells were labelled with cell proliferation dye, activated with anti-CD3 and treated with 5 μM of the antisense oligonucleotide A04040H or the control oligonucleotide S6 for a total treatment time of 5 days. In the vehicle control, cells were activated with anti-CD3 only. Subsequently, 400 μM of ATP or vehicle were added to cells on day 3 and day 4 after start of oligonucleotide treatment. Furthermore, as additional control, the small molecular CD39-inhibitor ARL67156 trisodium salt was added at 20 μM to cells on day 4 for an incubation time of 24 h. On day 5 after start of oligonucleotide treatment, CD39 protein expression, proliferation, and absolute cell numbers of CD8^+ T cells were analyzed using Flow Cytometry.

The test system of the next data set is mCD39 protein. Kind of data set: In vivo mCD39 protein knockdown in tumor-infiltrating immune cells, syngeneic MC38 mouse tumor model. Conditions: MC38 tumor-bearing C57BL/6 mice, 20, 10, 5 mg/kg subcutaneous, day 16, compared to the controls. The method, then:
FIGS. 16A and 16B show CD39 protein expression on tumor infiltrating regulatory T cells (Tregs) (FIG. 16A) and tumor associated macrophages (TAMs) (FIG. 16B) from oligonucleotide-treated mice in relation to tumors of untreated mice.
The potent mCD39 antisense oligonucleotide A04011MR was selected and its in vivo knockdown capacity in a subcutaneous syngeneic murine tumor model was analyzed. Therefore, 5×10^5 MC38 wt tumor cells were injected subcutaneously into C57BL/6 mice. Once tumors reached sizes between 50-70 mm^3, mice were treated systemically by subcutaneous injections with different doses of A04011MR (20 mg/kg; 10 mg/kg; 5 mg/kg) or with the negative control oligonucleotide neg1 (20 mg/kg) on days 1, 2, 3, 4, 5, 9, and 12 (4 mice/per group). As additional control, MC-38 tumor-bearing mice were left untreated. Four days after the last treatment with antisense oligonucleotide (day 16), tumors were isolated in order to analyze CD39 protein expression in subtypes of tumor-infiltrating immune cells using flow cytometry. FIGS. 16A and 16B depict CD39 protein expression on tumor-infiltrating regulatory T cells (Tregs) (FIG. 16A) and tumor associated macrophages (TAMs) (FIG. 16B) from oligonucleotide-treated mice in relation to tumors of untreated mice.

Data set [3] concerns mCD39 mRNA. Nature of the data set: mCD39 mRNA knockdown efficacy screen in A20 cells (single dose, gymnotic delivery, QuantiGene Singleplex). Format: cell-based, mouse. Particulars: 10 μM, three days, normalized to HPRT1. As for the experimental part:
FIG. 14-1 and 14-2 show mCD39 mRNA knockdown efficacy of mCD39 antisense oligonucleotides in the murine cancer cell line A20 (mouse B cell lymphoma). A20 cells were treated with a single dose of 10 μM of the respective antisense oligonucleotide. As negative control, cells were treated with neg1, an antisense oligonucleotide having the sequence CGTTTAGGCTATGTACTT (SEQ ID NO:99). Residual mCD39 mRNA expression relative to untreated cells is depicted. Expression values were normalized to expression of the housekeeping gene HPRT1.
In order to analyze the efficacy of mCD39 antisense oligonucleotides with regard to the knockdown of mCD39 mRNA expression in a cancer cell line, A20 (mouse B cell lymphoma, ATCC) cells were treated with a single dose (concentration: 10 μM without addition of any transfection reagent; this process is called gymnotic delivery) of the respective antisense oligonucleotide as indicated in FIG. 14. As control, cells were treated with neg1, an antisense oligonucleotide having the sequence CGTTTAGGCTATGTACTT (SEQ ID NO:99). mCD39 and HPRT1 mRNA expression was analyzed after three days using the QuantiGene Singleplex assay (Affymetrix) and mCD39 expression values were normalized to HPRT1 expression values.

In data set [4] the test system is mCD39 mRNA. Nature of the data set: In vivo mCD39 mRNA knockdown in spleens of C57BL/6 mice. Also noted: species or system mouse. Conditions: day 26, compared to neg 1 treated mice. The method, then:
FIGS. 15A and 15B depict CD39 mRNA expression levels in spleens from C57BL/6 mice treated by subcutaneous injections of either A04011MR or the negative control oligonucleotide neg1 at doses of 25 mg/kg or 10 mg/kg on days 1, 2, 3, 4, 5, 9, 12, 16, and 19 (5 mice/group). Expression values were normalized to expression values of the housekeeping gene HPRT1.
The potent mCD39 ASO A04011MR was selected and its in vivo knockdown capacity in C57BL/6 mice was analyzed. C57BL/6 mice were treated by subcutaneous injections of either A04011MR or the negative control oligonucleotide neg1 at doses of 25 mg/kg or 10 mg/kg on days 1, 2, 3, 4, 5, 9, 12, 16, and 19 (5 mice/group). Seven days after the last ASO treatment (day 26), mice were sacrificed and spleens were sampled for CD39 mRNA analysis. The results depicted in FIG. 15 show CD39 mRNA expression levels in spleens of A04011MR or neg1-treated mice.

Where [5] appears, read: absence of extracellular ATP, vs vehicle.
Where [6] appears, read: supplementation with 400 μM of ATP.

l = locked nucleic acid (LNA); d = 2'-deoxy (DNA)

Regarding “+T*+C*+T*A*T*C*G*T*G*A*T*G*T*T*+T*+C*+T (antisense TCTATCGTGATGTTTCT; sugars from the 5' end l3 d11 l3, all phosphorothioate, methylation of C not given here) [S6]”, the “Residual hCD39 mRNA expression relative to untreated cells (set as 1)” value in the data set with hCD39 mRNA [1] and in the data set on hCD39 mRNA [2] was 0.95 each time. The “hCD39 protein expression (MFI) after oligonucleotide removal” value in the data set with hCD39 protein is recorded as “no inhibitory effect”. Moreover, the “absolute cell numbers of CD8+ T cells” value with human CD8+ T cells (setting [5]) is “no differences”. Further, the “proliferation of CD8+ T cells” value in the data set with human CD8+ T cells (setting [5]) was “no differences”; in the data set on human CD8+ T cells (setting [6]), “reduced proliferation”. Besides, the “absolute numbers of CD8+ T cells” value in the data set on human CD8+ T cells (setting [6]) is on record as “significantly diminished”.
As to “+A*+G*+T*A*A*T*C*C*A*C*C*C*A*+T*+A*+G (antisense AGTAATCCACCCATAG; sugars from the 5' end l3 d10 l3, all phosphorothioate, methylation of C not given here) [A04011MR]”, the “mCD39 protein expression on tumor associated macrophages (TAMs)” value with mCD39 protein is listed as “dose-dependently suppressed”. Also, the “mCD39 protein expression on tumor-infiltrating regulatory T cells (Tregs)” value in the data set with mCD39 protein is recorded as “dose-dependently suppressed”. The “Relative mCD39 mRNA expression (compared to non-treated cells)” value in the data set on mCD39 mRNA [3] came to 0.01. Further, the “mCD39 mRNA levels in spleens” value in the data set on mCD39 mRNA [4] (10 mg/kg subcutaneous) and in the data set on mCD39 mRNA [4] (25 mg/kg subcutaneous) was “significantly reduced” each time.

For the origin of these results see patent US11959083B2, “Immunosuppression-reverting oligonucleotides inhibiting the expression of CD39” (Secarna Pharmaceuticals GmbH & Co. KG, priority 2016, dated 2024).
